Consider 35 compounds from US20240083872A1, “CYCLIC AMINE DERIVATIVES HAVING SEROTONIN RECEPTOR BINDING ACTIVITY” (Shionogi & Co., Ltd., priority 2020, published 2024).

Data set [1] deals with human ether-a-go-go related gene (hERG) channel (Homo sapiens (Human), UniProt Q12809). Put plainly: hERG test (FluxOR potassium channel assay, FLIPR). It is filed as cell-based. Particulars: CHO cells expressing hERG channel, thallium flux fluorescence. The method, then: Test Example 3-2: hERG Test
For the purpose of evaluating risk of an electrocardiogram QT interval prolongation of the compound of the present invention, effects of the compound were studied by evaluating the activity of potassium channel using CHO cells expressing human ether-a-go-go related gene (hERG) channel.
Evaluation was performed using a FluxORII Green Potassium IonCgannel Assay kit (Invitrogen: Molecular Probes).
Cells were seeded in a 384-assay plate (8000 cells/well/40 μL) and incubated (37° C., 5% CO2) overnight. After replacing the medium with a Wash buffer (1×HBSS, 20 mM HEPES) with a microplate washer, a fluorescent indicator was added to the medium and allowed to incubate (37° C., 5% CO2) for 1 hour for incorporation of the fluorescent indicator into cells.
A cell plate was placed on a cell-based kinetic assay system FLIPR (Molecular Devices, LLC.), and the compound was added to the cells so as to have a desired concentration and reacted for 10 minutes. When a mixed solution of potassium and thallium as a stimulator was added thereto, the potassium channel was opened, and thallium that flowed into the cells bound to the fluorescent indicator, so that the intracellular fluorescence signal increased, and the potassium channel current was detected as a fluorescence signal. […] Then, the inhibition rate was calculated from the signal intensity at each concentration. IC50 was calculated from the inhibition rate at each concentration.

For data set [2], the target named is human recombinant 5-HT2A receptor (Homo sapiens (Human), UniProt P28223). Put plainly: 5-HT2A receptor binding inhibition test ([3H]-Ketanserin). Particulars: Jump-In HEK cell membrane. The essentials:
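HEK cell membranes expressing human recombinant receptor were incubated with [3H]-ketanserin near its Kd in Tris-HCl 50 mmol/L pH 7.4 buffer (0.1% BSA) for 1.5 h at 25° C, then filtered on GF/B. Non-specific binding was defined with […] serotonin; Ki came from dose-response curves.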

Data set [3] has as its target human recombinant 5-HT2C receptor (Homo sapiens (Human), UniProt P28335). Put plainly: 5-HT2C receptor binding inhibition test ([3H]-Mesulergine). As to conditions: Jump-In HEK cell membrane, [3H]-Mesulergine.
The next data set is described as follows: Metabolic stability test. It is filed as in vitro ADME. As to conditions: human hepatic microsomes, 0.5 μmol/L, 30 minutes, 37° C., NADPH (oxidative reaction). As for the experimental part:
Test Example 6-2: Metabolic Stability Test
Using commercially available pooled human hepatic microsomes, a compound according to the present invention was reacted for a constant time, and a remaining rate was calculated by comparing a reacted sample and an unreacted sample, thereby, a degree of metabolism of the compound according to the present invention in liver was evaluated.
A reaction was performed (oxidative reaction) at 37° C. for 0 minutes or 30 minutes in the presence of 1 mmol/L NADPH in 0.2 mL of a buffer (50 mmol/L Tris-HCl pH 7.4, 150 mmol/L potassium chloride, 10 mmol/L magnesium chloride) containing 0.5 mg protein/mL of human hepatic microsomes. After the reaction, 70 μL of the reaction solution was added to 140 μL of a solution of methanol/acetonitrile=1/1 (v/v), mixed and centrifuged at 3000 rpm for 15 minutes. The compound according to the present invention in the supernatant was quantified by LC/MS/MS or Solid Phase Extraction (SPE)/MS, and a remaining rate of the compound according to the present invention after the reaction was calculated, letting a compound amount at 0 minute reaction time be 100%.

[4] abbreviates: read-out: human serotonin 5-HT2A receptor binding activity, Ki value.
[5] abbreviates: read-out: human serotonin 5-HT2C receptor binding inhibitory activity, Ki value.

Read-outs that look alike come from different tables or passages of the source. Bounds are passed on as bounds.

Sequence of human recombinant 5-HT2C receptor (P28335 33-458): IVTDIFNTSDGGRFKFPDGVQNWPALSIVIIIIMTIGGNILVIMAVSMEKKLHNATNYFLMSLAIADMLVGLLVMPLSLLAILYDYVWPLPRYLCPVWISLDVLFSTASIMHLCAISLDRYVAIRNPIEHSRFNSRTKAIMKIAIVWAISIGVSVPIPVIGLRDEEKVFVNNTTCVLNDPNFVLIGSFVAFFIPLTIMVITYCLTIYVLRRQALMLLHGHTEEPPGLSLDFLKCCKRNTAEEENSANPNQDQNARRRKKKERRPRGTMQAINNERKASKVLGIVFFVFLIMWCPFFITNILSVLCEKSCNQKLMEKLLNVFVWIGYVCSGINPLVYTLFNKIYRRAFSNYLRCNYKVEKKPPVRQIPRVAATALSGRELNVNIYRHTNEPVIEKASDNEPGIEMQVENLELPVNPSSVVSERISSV
Sequence of human ether-a-go-go related gene (hERG) channel (Q12809 whole entry): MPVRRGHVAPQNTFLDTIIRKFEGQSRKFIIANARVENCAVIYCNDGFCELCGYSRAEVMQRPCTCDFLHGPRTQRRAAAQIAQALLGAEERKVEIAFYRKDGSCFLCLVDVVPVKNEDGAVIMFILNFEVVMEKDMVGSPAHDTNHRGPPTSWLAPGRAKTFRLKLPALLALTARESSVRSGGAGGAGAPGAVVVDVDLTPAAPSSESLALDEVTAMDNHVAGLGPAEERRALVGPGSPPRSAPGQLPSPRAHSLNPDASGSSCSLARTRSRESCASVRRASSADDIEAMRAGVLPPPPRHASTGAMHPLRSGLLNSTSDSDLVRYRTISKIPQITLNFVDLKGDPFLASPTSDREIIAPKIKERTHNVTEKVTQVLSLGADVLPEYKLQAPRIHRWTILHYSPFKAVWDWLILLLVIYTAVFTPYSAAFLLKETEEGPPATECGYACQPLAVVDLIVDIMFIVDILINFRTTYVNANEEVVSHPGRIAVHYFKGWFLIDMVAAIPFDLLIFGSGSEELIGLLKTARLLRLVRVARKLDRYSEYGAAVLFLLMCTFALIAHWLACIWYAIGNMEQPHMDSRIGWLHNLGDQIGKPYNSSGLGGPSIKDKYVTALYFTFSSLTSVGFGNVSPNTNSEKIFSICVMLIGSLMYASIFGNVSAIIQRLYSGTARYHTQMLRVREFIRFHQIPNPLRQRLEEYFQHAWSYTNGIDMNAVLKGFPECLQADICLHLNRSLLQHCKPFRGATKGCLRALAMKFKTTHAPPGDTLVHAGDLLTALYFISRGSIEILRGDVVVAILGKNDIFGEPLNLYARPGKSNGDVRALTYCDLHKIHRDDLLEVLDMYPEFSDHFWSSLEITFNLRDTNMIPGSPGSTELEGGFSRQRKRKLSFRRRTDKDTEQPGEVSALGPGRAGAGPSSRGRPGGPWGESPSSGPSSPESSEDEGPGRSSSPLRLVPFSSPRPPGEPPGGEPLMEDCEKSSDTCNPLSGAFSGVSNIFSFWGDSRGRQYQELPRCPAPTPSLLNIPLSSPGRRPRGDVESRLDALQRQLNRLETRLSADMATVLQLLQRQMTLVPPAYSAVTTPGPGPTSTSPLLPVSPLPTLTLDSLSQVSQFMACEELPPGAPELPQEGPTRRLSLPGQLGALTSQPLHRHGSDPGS
Sequence of human recombinant 5-HT2A receptor (P28223 whole entry): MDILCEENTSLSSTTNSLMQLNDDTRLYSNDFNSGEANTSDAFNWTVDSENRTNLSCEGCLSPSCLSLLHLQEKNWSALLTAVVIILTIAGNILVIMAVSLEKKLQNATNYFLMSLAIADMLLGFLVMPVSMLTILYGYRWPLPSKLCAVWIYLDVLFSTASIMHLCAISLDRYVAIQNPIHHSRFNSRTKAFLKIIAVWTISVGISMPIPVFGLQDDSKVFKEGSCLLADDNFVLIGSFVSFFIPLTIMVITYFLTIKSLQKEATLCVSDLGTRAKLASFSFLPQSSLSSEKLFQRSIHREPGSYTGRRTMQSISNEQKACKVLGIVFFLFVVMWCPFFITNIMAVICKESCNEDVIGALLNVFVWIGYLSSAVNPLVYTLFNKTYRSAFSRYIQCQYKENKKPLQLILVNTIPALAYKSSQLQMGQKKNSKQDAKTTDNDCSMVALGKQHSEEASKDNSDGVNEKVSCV

In the case of `Cc1nc(CN(Cc2ccc(OCC(C)C)cc2)C(=O)OC2CCN(C)CC2)co1` [Compound I-081], in data set [1], the IC50 is over 52000 nM. Besides, the Ki in data set [2] (read-out: h-5-HT2A Ki) and in data set [3] (read-out: h-5-HT2C Ki) was under 10 nM each time.
Compound `CC(C)COc1ccc(CN(Cc2ccn(C)n2)C(=O)OC2CCN(C)CC2)cc1` [Compound I-082] registered a half-inhibitory concentration (IC50) in data set [1] of over 52000 nM. Further, the Ki in data set [2] (read-out: h-5-HT2A Ki) and in data set [3] (read-out: h-5-HT2C Ki) was 10 to 100 nM each time.
For `CCCCOc1ccc(CN(Cc2coc(C)n2)C(=O)NC2CCN(C)CC2)cc1` [Compound I-086], the Ki in data set [2] (setting [4]) is 0.503 nM; in data set [3] (setting [5]), 0.241 nM. Besides, the “remaining rate of the compound” value in the data set “Metabolic stability test” was found to be 75.5%.
As for `Cc1nc(CN(Cc2ccc(OCC(C)C)cc2)C(=O)NC2CCN(C)CC2)co1` [Compound I-077], the inhibition constant (Ki) in data set [2] (read-out: h-5-HT2A Ki) and in data set [3] (read-out: h-5-HT2C Ki) was under 10 nM each time. The “remaining rate of the compound” value in the data set “Metabolic stability test” stood at 85.3%.
As to `Cc1nc(CN(Cc2ccc(OCC(F)(F)C(F)(F)F)cc2)C(=O)NC2CCN(C)CC2)co1` [Compound I-088], the Ki in data set [2] (read-out: h-5-HT2A Ki) and in data set [3] (read-out: h-5-HT2C Ki) was under 10 nM each time. Also, the “remaining rate of the compound” value in the data set “Metabolic stability test” is 80.0%.
For `CC(C)COc1ccc(CN(Cc2ccn(C)n2)C(=O)N[C@H]2CCNCC23CC3)cc1` [Compound I-028], the Ki in data set [2] (read-out: h-5-HT2A Ki) and in data set [3] (read-out: h-5-HT2C Ki) was under 10 nM each time. Besides, the “remaining rate of the compound” value in “Metabolic stability test” is 90.2%.
For the compound `Cc1cc(CN(Cc2ccc(OCC(C)C)cc2)C(=O)OC2CCN(C)CC2)nn1C` [Compound I-083], the concentration for half-maximal inhibition (IC50) in data set [1] is over 52000 nM. In data set [2] (read-out: h-5-HT2A Ki), the Ki was 10 to 100 nM.
Regarding `CC(C)COc1ccc(CN(Cc2cnn(C)n2)C(=O)OC2CCN(C)CC2)cc1` [Compound I-084], the IC50 in data set [1] was over 52000 nM. Further, the Ki in data set [2] (setting [4]) turned out to be 2.61 nM; in data set [3] (setting [5]), 5.78 nM.
For `CCCCOc1ccc(CN(Cc2cnn(C)n2)C(=O)NC2CCN(C)CC2)c(F)c1` [Compound I-102], the inhibitory constant (Ki) in data set [2] (setting [4]) was found to be 0.642 nM; in data set [3] (setting [5]) it was 0.412 nM. The “remaining rate of the compound” value in the data set “Metabolic stability test” stood at 97.3%.
With `CC(C)COc1ccc(CN(Cc2ccc(F)cn2)C(=O)NC2CCN(C)CC2)cc1` [Compound I-016], the Ki in data set [2] (read-out: h-5-HT2A Ki) and in data set [3] (read-out: h-5-HT2C Ki) was under 10 nM in each case. In “Metabolic stability test”, the “remaining rate of the compound” value is given as 99.6%.
With `CCCc1ccc(CN(Cc2coc(C)n2)C(=O)NC2CCN(C)CC2)cc1F` [Compound I-107], the Ki in data set [2] (setting [4]) came out at 0.549 nM; in data set [3] (setting [5]), 0.34 nM.
With `CC(C)COc1ccc(CN(Cc2ccn(C)n2)C(=O)NC2CCN(C)CC23CC3)cc1` (racemic) [Compound I-045], the Ki in data set [2] (read-out: h-5-HT2A Ki) and in data set [3] (read-out: h-5-HT2C Ki) was under 10 nM in each case.
Turning to `CN1CCC(NC(=O)N(Cc2ccc(C3CC3)cc2)Cc2ccn(C)n2)CC1` [Compound I-029], the Ki in data set [2] (setting [4]) is 4.33 nM; in data set [3] (setting [5]), 20.5 nM.
Regarding `CC(C)COc1ccc(CN(Cc2ccc(C#N)cn2)C(=O)NC2CCN(C)CC2)cc1` [Compound I-032], the values for the Ki in data set [2] (read-out: h-5-HT2A Ki) and in data set [3] (read-out: h-5-HT2C Ki) were 10 to 100 nM and 100 to 5000 nM, respectively.
In the same order, the values of `COc1ccc(CN(Cc2ccn(C)n2)C(=O)NC2CCN(C)CC2)cc1F` [Compound I-014] are under 10 nM and 10 to 100 nM.
In the same order, the values of `Cc1nc(CN(Cc2ccc(OCC(C)C)cc2)C(=O)N[C@H]2CCN(C)C[C@H]2F)co1` [Compound I-078] are under 10 nM and under 10 nM.
For the compound `CCCCOc1ccc(CN(Cc2coc(C)n2)C(=O)NC2CCN(C)CC2)cc1F` [Compound I-087], the Ki in data set [2] (read-out: h-5-HT2A Ki) and in data set [3] (read-out: h-5-HT2C Ki) was under 10 nM in each case.
For `CC(C)COc1ccc(CN(Cc2cnn(C)n2)C(=O)N[C@H]2CCN(C)CC23CC3)cc1` [Compound I-103], the inhibition constant Ki in data set [2] (setting [4]) came out at 1.89 nM; in data set [3] (setting [5]), 0.634 nM.
In the case of `COCCN1CCC(NC(=O)N(Cc2ccc(OCC(C)C)cc2)Cc2ccn(C)n2)CC1` [Compound I-063], the Ki in data set [2] (read-out: h-5-HT2A Ki) and in data set [3] (read-out: h-5-HT2C Ki) was 10 to 100 nM in each case.
Turning to `CC(C)COc1ccc(CN(Cc2ccn(C)n2)C(=O)N[C@@H]2CCN(C)C[C@H]2C)cc1` [Compound I-065], the inhibition constant (Ki) in data set [2] (read-out: h-5-HT2A Ki) and in data set [3] (read-out: h-5-HT2C Ki) was under 10 nM throughout.
As to `CCCCOc1ccc(CN(Cc2coc(C)n2)C(=O)N[C@H]2CCN(C)CC23CC3)cc1` [Compound I-089], the Ki in data set [2] (read-out: h-5-HT2A Ki) and in data set [3] (read-out: h-5-HT2C Ki) was under 10 nM each time.
For `COc1ccc(CN(Cc2ccn(C)n2)C(=O)NC2CCN(C)CC2)cc1C` [Compound I-010], the Ki in data set [2] (read-out: h-5-HT2A Ki) lay within 10 to 100 nM; in data set [3] (read-out: h-5-HT2C Ki), 100 to 5000 nM.
As to `CC(C)COc1ccc(CN(Cc2ccn(C)n2)C(=O)NC2CCN(C)CC2)cc1` [Compound I-043], the values for the Ki in data set [2] (setting [4]) and in data set [3] (setting [5]) were 2.14 nM and 3.07 nM, respectively. Moreover, the “remaining rate of the compound” value in the data set “Metabolic stability test” is 85.0%.
On to `CC(C)COc1ccc(CN(Cc2ccn(C)n2)C(=O)CC2CCN(C)CC2)cc1` [Compound I-012], for which the Ki in data set [2] (setting [4]) came out at 6.02 nM; in data set [3] (setting [5]), 33 nM.
In data set [1], `CCCCOc1ccc(CN(Cc2coc(C)n2)C(=O)CC2CCN(C)CC2)cc1` [Compound I-099] returned an IC50 of 46800 nM. The Ki in data set [2] (read-out: h-5-HT2A Ki) and in data set [3] (read-out: h-5-HT2C Ki) was under 10 nM throughout.
On to `COc1ccc(CN(Cc2ccn(C)n2)C(=O)NC2CCN(C)CC2)c(F)c1` [Compound I-013], for which the Ki in data set [2] (read-out: h-5-HT2A Ki) and in data set [3] (read-out: h-5-HT2C Ki) was 10 to 100 nM each time.
In the case of `CC(C)COc1ccc(CN(Cc2ccn(C)n2)C(=O)N[C@H]2CCN(C)CC23CC3)cc1` [Compound I-037], the Ki in data set [2] (setting [4]) was found to be 4.7 nM; in data set [3] (setting [5]), 2.11 nM.
In the case of `Cc1nc(CN(Cc2ccc(CCC(F)(F)F)cc2)C(=O)NC2CCN(C)CC2)co1` [Compound I-105], the Ki in data set [2] (read-out: h-5-HT2A Ki) and in data set [3] (read-out: h-5-HT2C Ki) was under 10 nM each time.
For the compound `COc1ccc(CN(Cc2ccn(C)n2)C(=O)NC2CCN(C)CC2)nc1` [Compound I-051], the Ki in data set [2] (read-out: h-5-HT2A Ki) and in data set [3] (read-out: h-5-HT2C Ki) was 100 to 5000 nM in each case.
For `CC(C)COc1ccc(CN(Cc2cnn(C)n2)C(=O)NC2CCN(C)CC2)cc1` [Compound I-101], the Ki in data set [2] (setting [4]) amounted to 0.683 nM; in data set [3] (setting [5]) it was 0.461 nM.
For the compound `CCCCOc1ccc(CN(Cc2cnn(C)n2)C(=O)NC2CCN(C)CC2)cc1F` [Compound I-100], the Ki in data set [2] (read-out: h-5-HT2A Ki) and in data set [3] (read-out: h-5-HT2C Ki) was under 10 nM in each case.
For `CN1CCC(NC(=O)N(Cc2ccc(OCCO)cc2)Cc2ccn(C)n2)CC1` [Compound I-011], the Ki in data set [2] (read-out: h-5-HT2A Ki) and in data set [3] (read-out: h-5-HT2C Ki) was 100 to 5000 nM each time.
With `CC(C)COc1ccc(CN(Cc2ccn(C)n2)C(=O)N[C@H]2[C@@H]3CN(C)C[C@@H]32)cc1` [Compound I-058], the Ki in data set [2] (read-out: h-5-HT2A Ki) and in data set [3] (read-out: h-5-HT2C Ki) was 10 to 100 nM each time.
Consider `Cc1nc(CN(Cc2ccc(OCC(C)C)cc2F)C(=O)NC2CCN(C)CC2)co1` [Compound I-117], for which the figures for the Ki in data set [2] (setting [4]) and in data set [3] (setting [5]) were 0.82 nM and 0.315 nM, respectively.
For `Cc1ccc(CN(Cc2ccc(OCC(C)C)cc2)C(=O)NC2CCN(C)CC2)nc1` [Compound I-031], in that order: 0.709 nM and 1.89 nM.
